The EC50 is the concentration that produces a half-maximal response.

Consider 25 molecules from US11498903B2 (BRISTOL-MYERS SQUIBB COMPANY, priority 2017, dated 2022).

Where two headings read alike, the source gives them in different places. Bounds are passed on as bounds.

The test addresses T1, human APJ receptor (Homo sapiens, UniProt P35414).
T1 construct: expressed in transfected cells
T1 sequence (P35414 1-380): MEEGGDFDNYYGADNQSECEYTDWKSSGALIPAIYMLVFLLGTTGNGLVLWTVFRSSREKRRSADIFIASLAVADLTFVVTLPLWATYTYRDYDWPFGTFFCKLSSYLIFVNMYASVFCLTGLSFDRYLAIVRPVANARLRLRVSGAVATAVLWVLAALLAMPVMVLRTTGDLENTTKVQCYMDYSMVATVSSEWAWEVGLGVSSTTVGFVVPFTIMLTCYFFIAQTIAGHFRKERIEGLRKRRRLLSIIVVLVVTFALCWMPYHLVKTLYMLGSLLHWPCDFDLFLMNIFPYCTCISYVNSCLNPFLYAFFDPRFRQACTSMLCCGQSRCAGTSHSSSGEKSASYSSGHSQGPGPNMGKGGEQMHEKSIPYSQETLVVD
Briefly: Intracellular cAMP accumulation assay (APJ hcAMP, HTRF). The test is classed as cell-based. The procedure, abridged:
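Inhibition of 2 μM forskolin-driven cAMP ([…] present) measured by HTRF in 5,000 HEK293 cells/well stably expressing human APJ, 30 min, room temperature. EC50 came from a variable-slope sigmoidal fit; Ymax was relative to (Pyr1)apelin-13 set at 100%.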
(Changes in cAMP serve as a functional read-out for many G protein-coupled receptors.)

[1] abbreviates: Table 1, HEK293 cells stably expressing human APJ receptor, inhibition of forskolin-mediated cAMP production, read-out: APJ hcAMP EC50.
The mark [2] stands for this setting: Table 2, HEK293 cells stably expressing human APJ receptor, read-out: APJ cAMP Human EC50.
Where [3] appears, read: Table 3, HEK293 cells stably expressing human APJ receptor, read-out: APJ cAMP Human EC50.
Setting [4] is: human APJ, cAMP, potency range class, read-out: APJ cAMP Human EC50.

In the case of `COc1ccccc1[C@@H](C)NC(=O)c1ccc(-c2cc(Cl)ccc2-c2nc3ccccc3[nH]2)c(C(=O)O)c1` [Example 70, 2′-(1H-1,3-benzodiazol-2-yl)-5′-chloro-4-{[(1R)-1-(2-methoxyphenyl)ethyl]carbamoyl}-[1,1′-biphenyl]-2-carboxylic acid], the EC50 runs as follows: under setting [1], below 10 nM; under setting [2], below 10 nM.

On to `CCCC(NC(=O)c1ccc(-c2c(Cl)cccc2-c2nc3ccccc3[nH]2)c(C(=O)O)c1)c1ccc(Cl)cc1F` (single isomer, unassigned) [Example 184], for which the EC50 under setting [1] was below 10 nM.

On to `CCC[C@@H](NC(=O)c1ccc(-c2c(Cl)cccc2-c2nc3ccccc3[nH]2)c(C(=O)O)c1)c1ccccc1` (atropisomer, axis not shown) [Example 141, (R)-2′-(1H-1,3-benzodiazol-2-yl)-6′-chloro-4-{[(1R)-1-phenylbutyl]carbamoyl}-[1,1′-biphenyl]-2-carboxylic acid], for which the EC50 under setting [3] was 10 to 100 nM.

Turning to `CCOCC(NC(=O)c1ccc(-c2c(Cl)cccc2-c2nc3ccccc3[nH]2)c(C(=O)O)c1)c1ccccc1` [Example 157, (S)-2′-(1H-1,3-benzodiazol-2-yl)-6′-chloro-4-{[(1S)-2-ethoxy-1-phenylethyl]carbamoyl}-[1,1′-biphenyl]-2-carboxylic acid], the EC50 is below 10 nM under setting [1] and below 10 nM under setting [3].

In the case of `CCCC(CCC)NC(=O)c1ccc(-c2c(Cl)cccc2-c2nc3ccccc3[nH]2)c(C(=O)O)c1` [Example 153, (S)-2′-(1H-1,3-benzodiazol-2-yl)-6′-chloro-4-[(heptan-4-yl)carbamoyl]-[1,1′-biphenyl]-2-carboxylic acid], under setting [3], the EC50 was in the range of 10 to 100 nM.

With `CCC[C@H](NC(=O)c1ccc(-c2c(Cl)cccc2-c2nc3cc(Cl)c(F)cc3[nH]2)c(C(=O)O)c1)c1ccncc1` (single isomer, unassigned) [Example 199], the EC50 by setting is: under setting [1], below 10 nM; under setting [4], below 10 nM.

`COC[C@@H](NC(=O)c1ccc(-c2cc(Cl)ccc2-c2nc3ccccc3n2C)c(C(=O)O)c1)c1ccccc1` [Example 138, 5′-chloro-4-{[(1S)-2-methoxy-1-phenylethyl]carbamoyl}-2′-(1-methyl-1H-1,3-benzodiazol-2-yl)-[1,1′-biphenyl]-2-carboxylic acid]: the EC50 under setting [1] lay within 101 to 500 nM and the EC50 under setting [3] lay within 101 to 500 nM.

In the case of `CCCC(NC(=O)c1ccc(-c2c(Cl)cccc2-c2nc3cc(OC)c(F)cc3[nH]2)c(C(=O)O)c1)c1ccc(Cl)cc1OC` (single isomer, unassigned) [Example 197], the EC50 runs as follows: under setting [1], below 10 nM; under setting [4], below 10 nM.

In the case of `CCC[C@@H](NC(=O)c1ccc(-c2ccccc2-c2nc3ccccc3[nH]2)c(C(=O)O)c1)c1ccccc1` [Example 52, 2′-(1H-1,3-benzodiazol-2-yl)-4-{[(1R)-1-phenylbutyl]carbamoyl}-[1,1′-biphenyl]-2-carboxylic acid], the EC50 is below 10 nM under setting [1] and below 10 nM under setting [2].

Turning to `CCCC(NC(=O)c1ccc(-c2cc(Cl)ccc2-c2nc3ccccc3[nH]2)c(C(=O)O)c1)c1ccc(F)cc1` (single isomer, unassigned) [Example 209, 2′-(1H-1,3-benzodiazol-2-yl)-5′-chloro-4-{[1-(4-fluorophenyl)butyl]carbamoyl}-[1,1′-biphenyl]-2-carboxylic acid], the EC50 by setting is: under setting [1], below 10 nM; under setting [4], below 10 nM.

In the case of `COC[C@@H](NC(=O)c1ccc(-c2ccccc2-c2nc3cc(C(C)(C)C)ccc3[nH]2)c(C(=O)O)c1)c1ccccc1` [Example 65, 2′-(5-tert-butyl-1H-1.3-benzodiazol-2-yl)-4-{[(1S)-2-methoxy-1-phenylethyl]carbamoyl}-[1,1′-biphenyl]-2-carboxylic acid], the EC50 was below 10 nM under setting [1] and below 10 nM under setting [2].

For `C[C@@H](NC(=O)c1ccc(-c2cc(Cl)ccc2-c2nc3ccccc3[nH]2)c(C(=O)O)c1)c1ccccc1` [Example 76, 2′-(1H-1,3-benzodiazol-2-yl)-5′-chloro-4-{[(1R)-1-phenylethyl]carbamoyl}-[1,1′-biphenyl]-2-carboxylic acid], the EC50 is 10 to 100 nM under setting [1] and 10 to 100 nM under setting [2].

In the case of `CCCC(NC(=O)c1ccc(-c2c(Cl)cccc2-c2nc3ccccc3[nH]2)c(C(=O)O)c1)c1ccc(F)cc1OC` (single isomer, unassigned) [Example 165], the EC50 was below 10 nM under setting [1] and below 10 nM under setting [4].

In the case of `O=C(N[C@@H](CCC(F)(F)F)c1ccccc1)c1ccc(-c2c(Cl)cccc2-c2nc3ccccc3[nH]2)c(C(=O)O)c1` [Example 226, (S)-2′-(1H-1,3-benzodiazol-2-yl)-6′-chloro-4-[(4,4,4-trifluoro-1-phenylbutyl)carbamoyl]-[1,1′-biphenyl]-2-carboxylic acid], the EC50 runs as follows: under setting [1], below 10 nM; under setting [4], below 10 nM.

On to `CCC[C@@H](NC(=O)c1cc(C(=O)O)c(-c2cc(Cl)ccc2-c2nc3cc(C(C)(C)C)ccc3[nH]2)cc1C)c1ccccc1` [Example 68, 2,-(5-tert-butyl-1H-1,3-benzodiazol-2-yl)-5′-chloro-5-methyl-4-{[(1R)-1-phenylbutyl]carbamoyl}-[1,1′-biphenyl]-2-carboxylic acid], for which the EC50 runs as follows: under setting [1], below 10 nM; under setting [2], below 10 nM.

On to `CCC[C@@H](NC(=O)c1ccc(-c2c(Cl)cccc2-c2ncc(-c3ccc(C)c(F)c3)[nH]2)c(C(=O)O)c1)c1ccccc1` (atropisomer, axis not shown) [Example 104, (S)-2′-chloro-6′-[5-(3-fluoro-4-methylphenyl)-1H-imidazol-2-yl]-4-{[(1R)-1-phenylbutyl]carbamoyl}-[1,1′-biphenyl]-2-carboxylic acid], for which the EC50 was below 10 nM under setting [1] and below 10 nM under setting [3].

As to `COc1cc2[nH]c(-c3cccc(Cl)c3-c3ccc(C(=O)NCc4ccccc4)cc3C(=O)O)nc2cc1F` [Example 119, (S)-4-(benzylcarbamoyl)-2′-chloro-6′-(5-fluoro-6-methoxy-1H-1,3-benzodiazol-2-yl)-[1,1′-biphenyl]-2-carboxylic acid], the EC50 by setting is: under setting [1], 10 to 100 nM; under setting [3], 10 to 100 nM.

Turning to `CCCC(NC(=O)c1ccc(-c2c(Cl)cccc2-c2nc3cc(OC)c(OC)cc3[nH]2)c(C(=O)O)c1)c1ccccc1` [Example 93, (S)-2′-chloro-6′-(5,6-dimethoxy-1H-1,3-benzodiazol-2-yl)-4-{[(1R)-1-phenylbutyl]carbamoyl}-[1,1′-biphenyl]-2-carboxylic acid], the EC50 by setting is: under setting [1], below 10 nM; under setting [3], below 10 nM.

As for `CCC[C@@H](NC(=O)c1ccc(-c2cc(Cl)ccc2-c2nc3ccccc3[nH]2)c(C(=O)NS(C)(=O)=O)c1)c1ccccc1` [Example 44, 2′-(1H-1,3-benzodiazol-2-yl)-5′-chloro-N2-methanesulfonyl-N4-[(1R)-1-phenylbutyl]-[1,1′-biphenyl]-2,4-dicarboxamide], the EC50 under setting [1] fell in the range of 10 to 100 nM and the EC50 under setting [2] was 10 to 100 nM.

As to `CCC[C@@H](NC(=O)c1ccc(-c2c(C)cccc2-c2nc3cc(C(F)(F)F)ccc3[nH]2)c(C(=O)O)c1)c1ccccc1` (single isomer, unassigned) [Example 146], the EC50 is, setting by setting: under setting [1], below 10 nM; under setting [3], below 10 nM.

Take `CCC[C@H](NC(=O)c1ccc(-c2cc(Cl)ccc2-c2nc3ccccc3[nH]2)c(C(=O)O)c1)c1ccccc1` [Example 71, 2′-(1H-1,3-benzodiazol-2-yl)-5′-chloro-4-{[(1S)-1-phenylbutyl]carbamoyl}-[1,1′-biphenyl]-2-carboxylic acid]: the EC50 by setting is: under setting [1], 10 to 100 nM; under setting [2], 10 to 100 nM.

As for `COc1cc2nc(-c3cccc(Cl)c3-c3ccc(C(=O)NC(c4ccc(Cl)cc4)C4CC4)cc3C(=O)NS(C)(=O)=O)[nH]c2cc1F` (centres unmarked) [Example 206, 2′-chloro-N4-[(4-chlorophenyl)(cyclopropyl)methyl]-6′-(6-fluoro-5-methoxy-1H-1,3-benzodiazol-2-yl)-N2-methanesulfonyl-[1,1′-biphenyl]-2,4-dicarboxamide], the EC50 runs as follows: under setting [1], 10 to 100 nM; under setting [4], 10 to 100 nM.

Take `COc1cc2[nH]c(-c3cccc(Cl)c3-c3ccc(C(=O)NCCc4ccccc4)cc3C(=O)O)nc2cc1F` [Example 112, (S)-2′-chloro-6′-(5-fluoro-6-methoxy-1H-1,3-benzodiazol-2-yl)-4-[(2-phenylethyl)carbamoyl]-[1,1′-biphenyl]-2-carboxylic acid]: the EC50 runs as follows: under setting [1], below 10 nM; under setting [3], below 10 nM.

With `CCC[C@@H](NC(=O)c1ccc(-c2ccccc2-c2nc3cc(OC)ccc3[nH]2)c(C(=O)O)c1)c1ccccc1` [Example 58, 2′-(5-methoxy-1H-1,3-benzodiazol-2-yl)-4-{[(1R)-1-phenylbutyl]carbamoyl}-[1,1′-biphenyl]-2-carboxylic acid], the EC50 was below 10 nM under setting [1] and below 10 nM under setting [2].

As for `CCC[C@H](NC(=O)c1ccc(-c2c(Cl)cccc2-c2nc3ccccc3[nH]2)c(C(=O)O)c1)c1ccc(Cl)cc1` [Example 187, (S)-2′-(1H-1,3-benzodiazol-2-yl)-6′-chloro-4-{[1-(4-chlorophenyl)butyl]carbamoyl}-[1,1′-biphenyl]-2-carboxylic acid], the EC50 under setting [1] was below 10 nM and the EC50 under setting [4] is below 10 nM.
